Each structure is given as a SMILES string. Converted amounts (≈) assume the structure as drawn. Read-outs that look alike come from different tables or passages of the source. Non-standard residues stand in square brackets, D forms with d. Residues, ends and D or L forms follow the SMILES beside them. *: point of attachment. Oic = O=C(O)[C@@H]1C[C@@H]2CCCC[C@@H]2N1; Pent4ynoyl = C#CCCC(=O)*

Assay [1] relates to L. lactis NZ9000 (pEmpty). The following applies: broth microdilution (Wiegand et al. 2008); samples in 0.05% acetic acid; strain with empty plasmid. Here is the method:
(§1) All samples were resuspended in 0.05% aqueous acetic acid solution and the peptide amount was quantified by HPLC according to Schmitt et al. ([Schmitt et al., 2019]). The indicator strains MW2-MRSA, Enterococcus faecium, Listeria monocytogenes, and Lactococcus lactis were first streaked on GM17 plate and cultured overnight. The peptide samples were diluted with 0.05% acetic acid to a concentration of 40–320 μM (depending on the estimated activity of the peptide and the strain tested). The MIC value test was performed according to [Wiegand et al. (2008)].
(§2) M. flavus was used as the indicator strain for the agar well diffusion assay, and 0.15 nmol of each sample was added to each well (Figure 3). […] Antimicrobial activity of all compounds was tested by growth inhibition assays against two clinically relevant Gram-positive pathogens, i.e., methicillin resistant S. aureus and vancomycin resistant E. faecium, as well as L. monocytogenes, and L. lactis. […] For this experiment, an activity test was performed against the NSR producing strain L. lactis NZ9000 (pNSR).
For orientation: In broth dilution the organism is exposed to a series of concentrations in liquid medium.

The test system of assay [2] is MW2-MRSA (Staphylococcus aureus MW2, methicillin resistant). The method, then:
as §1, §2

Assay [3] concerns Listeria monocytogenes LMG 10470. The method, then: as §1, §2
The subject of assay [4] is Enterococcus faecium LMG 16003 (vancomycin resistant, VRE). Here is the method: as §1, §2
Setting [5] is: MW2- ( MW2, methicillin resistant).
Setting [6] is: broth microdilution (Wiegand et al. 2008), samples in 0.05% acetic acid, quantified by HPLC.

As for `C=C1NC(=O)[C@H]([C@@H](C)CC)NC(=O)[C@H](NC(=O)/C(=C/C)NC(=O)[C@@H](N)[C@@H](C)CC)CSC[C@@H](C(=O)N[C@H]2C(=O)N3CCC[C@H]3C(=O)NCC(=O)N[C@H](C(=O)N[C@@H](CCCCN)C(=O)NCCCn3cc(CCC(=O)N4[C@H](C(=O)N5[C@H](C(=O)N6[C@H](C(=O)N[C@@H](CCCCN)C(=O)N[C@@H](CCCCN)C(=O)N[C@@H](CCCCN)C(=O)O)C[C@@H]7CCCC[C@@H]76)C[C@@H]6CCCC[C@@H]65)C[C@@H]5CCCC[C@@H]54)nn3)CS[C@H]2C)NC(=O)[C@H](CC(C)C)NC1=O` [Nisin AB + O3K3], in assay [1], the “MIC value, L. lactis NZ9000 (pEmpty)” value is greater than 40 μM.
On to `C=C1NC(=O)[C@H]([C@@H](C)CC)NC(=O)[C@H](NC(=O)/C(=C/C)NC(=O)[C@@H](N)[C@@H](C)CC)CSC[C@@H](C(=O)N[C@H]2C(=O)N3CCC[C@H]3C(=O)NCC(=O)N[C@H](C(=O)N[C@@H](CCCCN)C(=O)NCCCn3cc(CCC(=O)N4[C@H](C(=O)N5[C@H](C(=O)N6[C@H](C(=O)O)C[C@@H]7CCCC[C@@H]76)C[C@@H]6CCCC[C@@H]65)C[C@@H]5CCCC[C@@H]54)nn3)CS[C@H]2C)NC(=O)[C@H](CC(C)C)NC1=O` [Nisin AB + O3], for which, in assay [1], the “MIC value, L. lactis NZ9000 (pEmpty)” value was greater than 40 μM.
On the same count and under the same terms, with `C=C1NC(=O)[C@H]([C@@H](C)CC)NC(=O)[C@H](NC(=O)/C(=C/C)NC(=O)[C@@H](N)[C@@H](C)CC)CSC[C@@H](C(=O)N[C@H]2C(=O)N3CCC[C@H]3C(=O)NCC(=O)N[C@H](C(=O)N[C@@H](CCCCN)C(=O)NCCCn3cc(CCC(=O)N4[C@H](C(=O)N5[C@H](C(=O)N6[C@H](C(=O)N7[C@H](C(=O)N8[C@H](C(=O)N9[C@H](C(=O)O)C[C@@H]%10CCCC[C@@H]%109)C[C@@H]9CCCC[C@@H]98)C[C@@H]8CCCC[C@@H]87)C[C@@H]7CCCC[C@@H]76)C[C@@H]6CCCC[C@@H]65)C[C@@H]5CCCC[C@@H]54)nn3)CS[C@H]2C)NC(=O)[C@H](CC(C)C)NC1=O` [Nisin AB + O6] the figure was 20 μM.
On the same count and under the same terms, with `C=C1NC(=O)[C@H]([C@@H](C)CC)NC(=O)[C@H](NC(=O)/C(=C/C)NC(=O)[C@@H](N)[C@@H](C)CC)CSC[C@@H](C(=O)N[C@H]2C(=O)N3CCC[C@H]3C(=O)NCC(=O)N[C@H](C(=O)N[C@@H](CCCCN)C(=O)NCCCn3cc(CCC(=O)N4[C@H](C(=O)N5[C@H](C(=O)N6[C@H](C(=O)N7[C@H](C(=O)N8[C@H](C(=O)N9[C@H](C(=O)N%10[C@H](C(=O)N%11[C@H](C(=O)N%12[C@H](C(=O)O)C[C@@H]%13CCCC[C@@H]%13%12)C[C@@H]%12CCCC[C@@H]%12%11)C[C@@H]%11CCCC[C@@H]%11%10)C[C@@H]%10CCCC[C@@H]%109)C[C@@H]9CCCC[C@@H]98)C[C@@H]8CCCC[C@@H]87)C[C@@H]7CCCC[C@@H]76)C[C@@H]6CCCC[C@@H]65)C[C@@H]5CCCC[C@@H]54)nn3)CS[C@H]2C)NC(=O)[C@H](CC(C)C)NC1=O` [Nisin AB + O9] the figure was 5.0 μM.
As for `C=C1NC(=O)[C@H]([C@@H](C)CC)NC(=O)[C@H](NC(=O)/C(=C/C)NC(=O)[C@@H](N)[C@@H](C)CC)CSC[C@@H](C(=O)N[C@H]2C(=O)N3CCC[C@H]3C(=O)NCC(=O)N[C@H](C(=O)N[C@@H](CCCCN)C(=O)N[C@H]3C(=O)NCC(=O)N[C@@H](C)C(=O)N[C@@H](CC(C)C)C(=O)N[C@@H](CCSC)C(=O)NCC(=O)N[C@H](C(=O)N[C@@H](CC(N)=O)C(=O)NCCCn4cc(CCC(=O)N5[C@H](C(=O)N6[C@H](C(=O)N7[C@H](C(=O)O)C[C@@H]8CCCC[C@@H]87)C[C@@H]7CCCC[C@@H]76)C[C@@H]6CCCC[C@@H]65)nn4)CS[C@H]3C)CS[C@H]2C)NC(=O)[C@H](CC(C)C)NC1=O` [Nisin ABC + O3], the “MIC value, L. lactis NZ9000 (pEmpty)” value in assay [1] was found to be 5.0 μM. In addition, the “MIC value, MW2-MRSA” value in assay [2] (setting [5]) was greater than 80 µM. The “MIC value, L. monocytogenes” value in assay [3] (LMG 10470) is greater than 80 µM. Moreover, the “MIC value, E. faecium” value in assay [4] (LMG 16003) was found to be 20 µM.
In the case of `C=C1NC(=O)[C@H]([C@@H](C)CC)NC(=O)[C@H](NC(=O)/C(=C/C)NC(=O)[C@@H](N)[C@@H](C)CC)CSC[C@@H](C(=O)N[C@H]2C(=O)N3CCC[C@H]3C(=O)NCC(=O)N[C@H](C(=O)N[C@@H](CCCCN)C(=O)N[C@H]3C(=O)NCC(=O)N[C@@H](C)C(=O)N[C@@H](CC(C)C)C(=O)N[C@@H](CCSC)C(=O)NCC(=O)N[C@H](C(=O)N[C@@H](CC(N)=O)C(=O)NCCCn4cc(CCC(=O)N5[C@H](C(=O)N6[C@H](C(=O)N7[C@H](C(=O)N8[C@H](C(=O)N9[C@H](C(=O)N%10[C@H](C(=O)N%11[C@H](C(=O)N%12[C@H](C(=O)N%13[C@H](C(=O)O)C[C@@H]%14CCCC[C@@H]%14%13)C[C@@H]%13CCCC[C@@H]%13%12)C[C@@H]%12CCCC[C@@H]%12%11)C[C@@H]%11CCCC[C@@H]%11%10)C[C@@H]%10CCCC[C@@H]%109)C[C@@H]9CCCC[C@@H]98)C[C@@H]8CCCC[C@@H]87)C[C@@H]7CCCC[C@@H]76)C[C@@H]6CCCC[C@@H]65)nn4)CS[C@H]3C)CS[C@H]2C)NC(=O)[C@H](CC(C)C)NC1=O` [Nisin ABC + O9], the “MIC value, L. lactis NZ9000 (pEmpty)” value in assay [1] is on record as 5.0 μM. The “MIC value, MW2-MRSA” value in assay [2] (setting [5]) is greater than 80 µM. In addition, in assay [3] (LMG 10470), the “MIC value, L. monocytogenes” value is 40 µM. Moreover, the “MIC value, E. faecium” value in assay [4] (LMG 16003) was 10 µM.
With `C=C1NC(=O)[C@H]([C@@H](C)CC)NC(=O)[C@H](NC(=O)/C(=C/C)NC(=O)[C@@H](N)[C@@H](C)CC)CSC[C@@H](C(=O)N[C@H]2C(=O)N3CCC[C@H]3C(=O)NCC(=O)N[C@H](C(=O)N[C@@H](CCCCN)C(=O)N[C@H]3C(=O)NCC(=O)N[C@@H](C)C(=O)N[C@@H](CC(C)C)C(=O)N[C@@H](CCSC)C(=O)NCC(=O)N[C@H](C(=O)N[C@@H](CC(N)=O)C(=O)O)CS[C@H]3C)CS[C@H]2C)NC(=O)[C@H](CC(C)C)NC1=O` [Nisin ABC, reference compound], in assay [1], the “MIC value, L. lactis NZ9000 (pEmpty)” value was found to be 5.0 μM. In addition, the “MIC value, MW2-MRSA” value in assay [2] (setting [5]) is 40 µM (≈ 75.2 µg/mL). Further, the “MIC value, L. monocytogenes” value in assay [3] (LMG 10470) was 40 µM (≈ 75.2 µg/mL). Besides, the “MIC value, E. faecium” value in assay [4] (LMG 16003) was found to be 40 µM (≈ 75.2 µg/mL).
In the case of `C#CCCC(=O)N1[C@H](C(=O)N2[C@H](C(=O)N3[C@H](C(=O)N[C@@H](CCCCN)C(=O)N[C@@H](CCCCN)C(=O)N[C@@H](CCCCN)C(=O)O)C[C@@H]4CCCC[C@@H]43)C[C@@H]3CCCC[C@@H]32)C[C@@H]2CCCC[C@@H]21` [O3K3] (Pent4ynoyl-[Oic][Oic][Oic]KKK-OH), the “MIC value, L. lactis NZ9000 (pEmpty)” value in assay [1] is greater than 160 μM. In addition, the “MIC value, MW2-MRSA” value in assay [2] (setting [5]) is greater than 160 µM. Also, in assay [3] (LMG 10470), the “MIC value, L. monocytogenes” value is greater than 160 µM. For the same molecule, the “MIC value, E. faecium” value in assay [4] (LMG 16003) was greater than 160 µM.
With `C#CCCC(=O)N1[C@H](C(=O)N2[C@H](C(=O)N3[C@H](C(=O)O)C[C@@H]4CCCC[C@@H]43)C[C@@H]3CCCC[C@@H]32)C[C@@H]2CCCC[C@@H]21` [O3], the “MIC value, MW2-MRSA” value in assay [2] (setting [5]) is greater than 320 µM. The “MIC value, L. monocytogenes” value in assay [3] (LMG 10470) was greater than 320 µM. Moreover, the “MIC value, E. faecium” value in assay [4] (LMG 16003) was greater than 320 µM.
On to `C#CCCC(=O)N1[C@H](C(=O)N2[C@H](C(=O)N3[C@H](C(=O)N4[C@H](C(=O)N5[C@H](C(=O)N6[C@H](C(=O)N[C@@H](CCCCN)C(=O)N[C@@H](CCCCN)C(=O)N[C@@H](CCCCN)C(=O)O)C[C@@H]7CCCC[C@@H]76)C[C@@H]6CCCC[C@@H]65)C[C@@H]5CCCC[C@@H]54)C[C@@H]4CCCC[C@@H]43)C[C@@H]3CCCC[C@@H]32)C[C@@H]2CCCC[C@@H]21` [O6K3] (Pent4ynoyl-[Oic][Oic][Oic][Oic][Oic][Oic]KKK-OH), for which the “MIC value, L. lactis NZ9000 (pEmpty)” value in assay [1] was greater than 80 μM. For the same molecule, the “MIC value, MW2-MRSA” value in assay [2] (setting [6]) is greater than 80 µM. The “MIC value, L. monocytogenes” value in assay [3] (setting [6]) is greater than 80 µM. In addition, the “MIC value, E. faecium” value in assay [4] (setting [6]) was greater than 80 µM.
As for `C#CCCC(=O)N1[C@H](C(=O)N2[C@H](C(=O)N3[C@H](C(=O)N4[C@H](C(=O)N5[C@H](C(=O)N6[C@H](C(=O)O)C[C@@H]7CCCC[C@@H]76)C[C@@H]6CCCC[C@@H]65)C[C@@H]5CCCC[C@@H]54)C[C@@H]4CCCC[C@@H]43)C[C@@H]3CCCC[C@@H]32)C[C@@H]2CCCC[C@@H]21` [O6] (Pent4ynoyl-[Oic][Oic][Oic][Oic][Oic][Oic]-OH), the “MIC value, MW2-MRSA” value in assay [2] (setting [5]) is greater than 320 µM. Besides, the “MIC value, L. monocytogenes” value in assay [3] (LMG 10470) was greater than 320 µM. The “MIC value, E. faecium” value in assay [4] (LMG 16003) is greater than 320 µM.
For `C#CCCC(=O)N1[C@H](C(=O)N2[C@H](C(=O)N3[C@H](C(=O)N4[C@H](C(=O)N5[C@H](C(=O)N6[C@H](C(=O)N7[C@H](C(=O)N8[C@H](C(=O)N9[C@H](C(=O)O)C[C@@H]%10CCCC[C@@H]%109)C[C@@H]9CCCC[C@@H]98)C[C@@H]8CCCC[C@@H]87)C[C@@H]7CCCC[C@@H]76)C[C@@H]6CCCC[C@@H]65)C[C@@H]5CCCC[C@@H]54)C[C@@H]4CCCC[C@@H]43)C[C@@H]3CCCC[C@@H]32)C[C@@H]2CCCC[C@@H]21` [O9, Pentynyl-(Oic)9-OH] (Pent4ynoyl-[Oic][Oic][Oic][Oic][Oic][Oic][Oic][Oic][Oic]-OH), the “MIC value, MW2-MRSA” value in assay [2] (setting [5]) is greater than 320 µM. Further, the “MIC value, L. monocytogenes” value in assay [3] (LMG 10470) is greater than 320 µM. Further, the “MIC value, E. faecium” value in assay [4] (LMG 16003) was greater than 320 µM.
